Columns and labels:
Abl(T315I) = target: T1, Abl(T315I) (Homo sapiens, UniProt P00519, T315I); test: Abl(T315I) kinase activity assay, Kinase-Glo Plus luminescence (BPS Biosciences); format: biochemical; details: 10 μM ATP
T1 construct: purchased BPS Biosciences (named as the lab that ran the assay)
Description: (§1) Assay was conducted by BPS Biosciences, 6405 Mira Mesa Blvd. Suite 100. San Diego, Calif. 92121. United States
(§2) • The assay was performed using Kinase-Glo Plus luminescence kinase assay kit (Promega). It measures kinase activity by quantitating the amount of ATP remaining in solution following a kinase reaction. The luminescent signal from the assay is correlated with the amount of ATP present and is inversely correlated with the amount of kinase activity. • The testing compounds were diluted in 10% DMSO and 5 μl of the dilution was added to a 50 μl reaction so that the final concentration of DMSO is 1% in all of reactions. All of the enzymatic reactions were conducted at 30° C. for 45 minutes. The 50 μl reaction mixture contains 40 mM Tris, pH 7.4, 10 mM MgCl2, 0.1 mg/ml BSA, 1 mM DTT, 10 μM ATP, Kinase substrate and the enzyme. After the enzymatic reaction, 50 μl of Kinase-Glo Plus Luminescence kinase assay solution (Promega) was added to each reaction and incubated on the plate for 15 minutes, at room temperature. Luminescence signal was measured using a BioTek Synergy 2 microplate reader.
(§3) • Kinase activity assays were performed in duplicate at each concentration. The luminescence data were analyzed using the computer software, Graphpad Prism. The difference between luminescence intensities in the absence of Kinase (Lut) and in the presence of Kinase (Luc) was defined as 100% activity (Lut−Luc). Using luminescence signal (Lu) in the presence of the compound, % activity was calculated as: • % activity={(Lut−Lu)/(Lut−Luc)}×100%, where Lu=the luminescence intensity in the presence of the compound. The values of % activity versus a series of compound concentrations were then plotted using non-linear regression analysis of Sigmoidal dose-response curve generated with the equation Y=B+(T−B)/1+10 ((LogEC50−X)×Hill Slope), where Y=percent activity, B=minimum percent activity, T=maximum percent activity, X=logarithm of compound and Hill Slope=slope factor or Hill coefficient. The IC 50 value was determined by the concentration causing a half-maximal percent activity.

ABL (WT) = target: T2, ABL (WT) (Homo sapiens, UniProt P00519); test: Abl kinase activity assay, Kinase-Glo Plus luminescence (BPS Biosciences); format: biochemical; details: 10 μM ATP
T2 construct: purchased BPS Biosciences (named as the lab that ran the assay)
Description: as §1, §2, §3

[1] = 10 nM compound, read-out: % Inhibition of Compound 55 @10 nM
[2] = 100 nM compound, read-out: % Inhibition of Compound 55 @100 nM

For Cc1ccc(C(=O)Nc2ccc(CN3CCN(C)CC3)c(C(F)(F)F)c2)cc1C12CC(c3cnc4cccnn34)(C1)C2 [Compound 55, 3-(3-(imidazo[1,2-b]pyridazin-3-yl)bicyclo[1.1.1]pentan-1-yl)-4-methyl-N-(4-((4-methylpiperazin-1-yl)methyl)-3-(trifluoromethyl)phenyl)benzamide], the inhibition at 0.01 µM (Abl(T315I); [1]) was > 10%, the inhibition at 0.1 µM (Abl(T315I); [2]) was > 25% and the IC50 (Abl(T315I); read-out: IC-50 of Compound 55) was < 0.5 µM. The inhibition at 0.01 µM (ABL (WT); [1]) was > 10%, the inhibition at 0.1 µM (ABL (WT); [2]) was > 25% and the IC50 (ABL (WT); read-out: IC-50 of Compound 55) was < 0.5 µM.

Reference: patent publication US20220289756A1, “COMPOUNDS AND COMPOSITIONS AS INHIBITORS OF PROTEIN KINASES” (priority 2021, published 2022)
